Laboratory results: patent US20260041744A1, “Methods for Treating Pompe Disease” (Amicus Therapeutics, Inc., priority 2022, published 2026)
Entries after “also recorded” stand apart in the source; their conditions may differ.

What was measured:
[1] = test system: adults with Pompe disease; assay: Study ATB200-02: manual muscle test (MMT lower extremity, upper body, total); type: in vivo, human; conditions: for MMT total score (upper body) change from baseline, mean: Cohort 2 (non-ambulatory ERT-experienced)
Excerpt: Results for lower extremity MMT are shown in Table 25 and FIGS. 48A and 48B.

[2] = test system: adults with Pompe disease; assay: Study ATB200-02: MIP, MEP and other pulmonary measures; type: in vivo, human
Excerpt: Mean CFBL in % predicted sitting FVC was generally stable (CFBL±3% points) for up to 48 months of follow-up in the ERT-experienced cohorts (FIG. 47A, Table 26B), with improvements (CFBL >3% points) at Months 48 in 66.7% of ERT-experienced and 75% of ERT-naïve patients.
In the ERT-naïve cohort, mean CFBL in % predicted sitting FVC improved at 3 months and then remained generally stable up to 48 months of follow up (FIG. 47B, Table 26B), except for one patient who experienced a large drop in % predicted sitting FVC at Month 21, which returned to previous levels at the following visit at Month 24. Mean % predicted sitting FVC improvements were more marked in the ERT-naïve cohort compared with the ERT-experienced cohort over 48 months of follow up (FIG. 47B, Table 26B). […] Percent predicted sitting FVC data were supported by similar outcomes in other pulmonary measures including % predicted maximum inspiratory pressure (MIP) and MEP.

[3] = Study ATB200-02: safety (TEAEs); conditions: in vivo
Excerpt: Mean (SD) duration of treatment was 37.2 (14.48), 19.9 (4.13) and 36.9 (12.14) months in cohorts 1 (prior ERT 2-6 years), 4 (prior ERT ≥7 years) and 3 (ERT naive), respectively.
Mean (SD) duration of treatment was 46.3 (22.86) months.

[4] = Ambulatory ERT-experienced, 12 months
[5] = Ambulatory ERT-experienced, 24 months
[6] = Ambulatory ERT-experienced, 36 months
[7] = Ambulatory ERT-experienced, 48 months
[8] = Ambulatory ERT-naïve, 12 months
[9] = Ambulatory ERT-naïve, 24 months
[10] = Ambulatory ERT-naïve, 36 months
[11] = Ambulatory ERT-naïve, 48 months
[12] = Cohort 1 + Cohort 3 + Cohort 4, Month 12
[13] = Cohort 1 + Cohort 3 + Cohort 4, Month 24
[14] = Cohort 1 + Cohort 3 + Cohort 4, Month 36
[15] = Cohort 1 + Cohort 3 + Cohort 4, Month 48
[16] = Non-ambulatory ERT-experienced, 12 months
[17] = Non-ambulatory ERT-experienced, 24 months
[18] = Non-ambulatory ERT-experienced, 36 months
[19] = Non-ambulatory ERT-experienced, 48 months

ATB200/miglustat: two-component therapy: cipaglucosidase alfa (ATB200) administered in conjunction with miglustat (AT2221), a stabilizer of cipaglucosidase alfa
muscle strength by MMTs and QMTs ([1]; 48 months): stable or improved muscle strength in the lower and upper extremities and proximal muscle groups
Lower body MMT score, CFBL mean [1, 4]: 3.1
Total MMT score, CFBL mean [1, 4]: 4.3
Upper body MMT score, CFBL mean [1, 4]: 1.3
Lower body MMT score, CFBL mean [1, 5]: 2.1
Total MMT score, CFBL mean [1, 5]: 2.5
Upper body MMT score, CFBL mean [1, 5]: 0.5
Lower body MMT score, CFBL mean [1, 6]: 2.5
Total MMT score, CFBL mean [1, 6]: 3.6
Upper body MMT score, CFBL mean [1, 6]: 0.8
Lower body MMT score, CFBL mean [1, 7]: 3.5
Total MMT score, CFBL mean [1, 7]: 4.0
Upper body MMT score, CFBL mean [1, 7]: 0.5
Lower body MMT score, CFBL mean [1, 8]: 2.8
Total MMT score, CFBL mean [1, 8]: 2.4
Upper body MMT score, CFBL mean [1, 8]: 0.0
Lower body MMT score, CFBL mean [1, 9]: 3.0
Total MMT score, CFBL mean [1, 9]: 2.0
Upper body MMT score, CFBL mean [1, 9]: −1.5
Lower body MMT score, CFBL mean [1, 10]: (3.3
Total MMT score, CFBL mean [1, 10]: 3.5
Upper body MMT score, CFBL mean [1, 10]: 1.0
Lower body MMT score, CFBL mean [1, 11]: (1.0)
Total MMT score, CFBL mean [1, 11]: −1.3
Upper body MMT score, CFBL mean [1, 11]: −1.4
MMT (total score) CFB, mean ([1]; Cohort 1 + Cohort 3 + Cohort 4, 24-mo): 2.4
MMT (total score) CFB, mean ([1]; Cohort 1 + Cohort 3 + Cohort 4, 48-mo): 2.3
MMT lower extremity score change from baseline, mean [1, 12]: 3.0
MMT lower extremity score change from baseline, median [1, 12]: 3.0
MMT lower extremity score change from baseline, mean [1, 13]: 2.3
MMT lower extremity score change from baseline, median [1, 13]: 2.0
MMT lower extremity score change from baseline, mean [1, 14]: 2.7
MMT lower extremity score change from baseline, median [1, 14]: 2.0
MMT lower extremity score change from baseline, mean [1, 15]: 2.7
MMT lower extremity score change from baseline, median [1, 15]: 3.0
MMT (total score) CFB, mean ([1]; Cohort 1 + Cohort 4 (ERT-experienced), 24-mo): 2.5
MMT (total score) CFB, mean ([1]; Cohort 1 + Cohort 4 (ERT-experienced), 48-mo): 4.0
MMT lower extremity score change from baseline, mean ([1]; Cohort 1 + Cohort 4 (ERT-experienced), Month 12): 3.1 pts
MMT lower extremity score change from baseline, mean ([1]; Cohort 1 + Cohort 4 (ERT-experienced), Month 24): 2.1 pts
MMT lower extremity score change from baseline, mean ([1]; Cohort 1 + Cohort 4 (ERT-experienced), Month 36): 2.5 pts
MMT lower extremity score change from baseline, mean ([1]; Cohort 1 + Cohort 4 (ERT-experienced), Month 48): 3.5 pts
MMT lower extremity score change from baseline, median ([1]; Cohort 1 + Cohort 4, Month 12): 2.0
MMT lower extremity score change from baseline, median ([1]; Cohort 1 + Cohort 4, Month 24): 2.0
MMT lower extremity score change from baseline, median ([1]; Cohort 1 + Cohort 4, Month 36): 1.5
MMT lower extremity score change from baseline, median ([1]; Cohort 1 + Cohort 4, Month 48): 3.0
MMT total score (upper body) change from baseline, mean ([1]; month 12): +1.3 pts
MMT total score (upper body) change from baseline, mean ([1]; month 24): +2.0 pts
MMT total score (upper body) change from baseline, mean ([1]; month 36): −0.8 pts
MMT (total score) CFB, mean ([1]; Cohort 3 (ERT-naïve), 24-mo): 2.0
MMT (total score) CFB, mean ([1]; Cohort 3 (ERT-naïve), 48-mo): −1.3
MMT lower extremity score change from baseline, mean ([1]; Cohort 3 (ERT-naïve), Month 12): 2.8 pts
MMT lower extremity score change from baseline, mean ([1]; Cohort 3 (ERT-naïve), Month 24): 3.0 pts
MMT lower extremity score change from baseline, mean ([1]; Cohort 3 (ERT-naïve), Month 36): 3.3 pts
MMT lower extremity score change from baseline, mean ([1]; Cohort 3 (ERT-naïve), Month 48): 1.0 pts
MMT lower extremity score change from baseline, median ([1]; Cohort 3, Month 12): 4.0
MMT lower extremity score change from baseline, median ([1]; Cohort 3, Month 24): 3.0
MMT lower extremity score change from baseline, median ([1]; Cohort 3, Month 36): 3.5
MMT lower extremity score change from baseline, median ([1]; Cohort 3, Month 48): 2.0
patients whose MMT lower extremity score improved numerically from baseline (n/N) ([1]; ERT-experienced ambulatory, 12 months): 14/15
patients whose MMT lower extremity score improved numerically from baseline (n/N) ([1]; ERT-experienced ambulatory, 24 months): 11/13
patients whose MMT lower extremity score improved numerically from baseline (n/N) ([1]; ERT-experienced ambulatory, 36 months): 10/10
patients whose MMT lower extremity score improved numerically from baseline (n/N) ([1]; ERT-experienced ambulatory, 48 months): 8/8
patients whose MMT lower extremity score improved numerically from baseline (n/N) ([1]; ERT-naïve, 12 months): 4/5
patients whose MMT lower extremity score improved numerically from baseline (n/N) ([1]; ERT-naïve, 24 months): 4/5
patients whose MMT lower extremity score improved numerically from baseline (n/N) ([1]; ERT-naïve, 36 months): 4/4
patients whose MMT lower extremity score improved numerically from baseline (n/N) ([1]; ERT-naïve, 48 months): 3/4
Total MMT score, CFBL mean [1, 16]: 1.3
Upper body MMT score, CFBL mean [1, 16]: 1.3
Total MMT score, CFBL mean [1, 17]: 2.0
Upper body MMT score, CFBL mean [1, 17]: 2.0
Total MMT score, CFBL mean [1, 18]: −0.8
Upper body MMT score, CFBL mean [1, 18]: −0.8
MEP / MIP outcome ([2]; 12, 24, 36, and 48 months, listed as cipaglucosidase alfa/miglustat): maximum expiratory pressure (MEP) results that also improved numerically from baseline; also recorded: MIP improved numerically in ERT-naïve patients
Percent predicted Sniff Nasal Inspiratory Pressure, CFBL mean [2, 4]: 2.1%
Percent predicted maximum expiratory pressure, CFBL mean [2, 4]: 9.4%
Percent predicted maximum inspiratory pressure, CFBL mean [2, 4]: 3.7%
Percent predicted Sniff Nasal Inspiratory Pressure, CFBL mean [2, 5]: 5.3%
Percent predicted maximum expiratory pressure, CFBL mean [2, 5]: 16.8%
Percent predicted maximum inspiratory pressure, CFBL mean [2, 5]: 4.5%
Percent predicted Sniff Nasal Inspiratory Pressure, CFBL mean [2, 6]: −2.3%
Percent predicted maximum expiratory pressure, CFBL mean [2, 6]: 13.7%
Percent predicted maximum inspiratory pressure, CFBL mean [2, 6]: −0.5%
Percent predicted Sniff Nasal Inspiratory Pressure, CFBL mean [2, 7]: 7.3%
Percent predicted maximum expiratory pressure, CFBL mean [2, 7]: 17.9%
Percent predicted maximum inspiratory pressure, CFBL mean [2, 7]: −3.8%
Percent predicted Sniff Nasal Inspiratory Pressure, CFBL mean [2, 8]: 9.4%
Percent predicted maximum expiratory pressure, CFBL mean [2, 8]: 11.6%
Percent predicted maximum inspiratory pressure, CFBL mean [2, 8]: 8.0%
Percent predicted Sniff Nasal Inspiratory Pressure, CFBL mean [2, 9]: 8.1%
Percent predicted maximum expiratory pressure, CFBL mean [2, 9]: 17.9%
Percent predicted maximum inspiratory pressure, CFBL mean [2, 9]: 18.7%
Percent predicted Sniff Nasal Inspiratory Pressure, CFBL mean [2, 10]: 4.3%
Percent predicted maximum expiratory pressure, CFBL mean [2, 10]: 14.2%
Percent predicted maximum inspiratory pressure, CFBL mean [2, 10]: 12.5%
Percent predicted Sniff Nasal Inspiratory Pressure, CFBL mean [2, 11]: 4.6%
Percent predicted maximum expiratory pressure, CFBL mean [2, 11]: 24.8%
Percent predicted maximum inspiratory pressure, CFBL mean [2, 11]: 16.1%
Percent predicted Sniff Nasal Inspiratory Pressure, CFBL mean [2, 16]: 4.5%
Percent predicted maximum expiratory pressure, CFBL mean [2, 16]: 10.6%
Percent predicted maximum inspiratory pressure, CFBL mean [2, 16]: 1.1%
Percent predicted Sniff Nasal Inspiratory Pressure, CFBL mean [2, 17]: 7.8%
Percent predicted maximum expiratory pressure, CFBL mean [2, 17]: 21.1%
Percent predicted maximum inspiratory pressure, CFBL mean [2, 17]: 3.3%
Percent predicted Sniff Nasal Inspiratory Pressure, CFBL mean [2, 18]: −0.4%
Percent predicted maximum expiratory pressure, CFBL mean [2, 18]: 11.5%
Percent predicted maximum inspiratory pressure, CFBL mean [2, 18]: −0.4%
Percent predicted Sniff Nasal Inspiratory Pressure, CFBL mean [2, 19]: −4.1%
Percent predicted maximum expiratory pressure, CFBL mean [2, 19]: 21.0%
Percent predicted maximum inspiratory pressure, CFBL mean [2, 19]: 3.9%
TEAE profile / tolerability [3]: most TEAEs were mild or moderate in severity and did not lead to study withdrawal
